Test results taken from ChEMBL document CHEMBL5154740, “Novel Aurora A and Protein Kinase C (α, β1, β2, and θ) Multitarget Inhibitors: Impact of Selenium Atoms on the Potency and Selectivity” (J Med Chem, 2022).

Experiments:
[1] = molecular target: T1, Aurora kinase A (Homo sapiens) (UniProt O14965); experiment: Inhibition of AURA (unknown origin) at 50 nM by Z'LYTE screening method relative to control
T1 sequence (whole entry): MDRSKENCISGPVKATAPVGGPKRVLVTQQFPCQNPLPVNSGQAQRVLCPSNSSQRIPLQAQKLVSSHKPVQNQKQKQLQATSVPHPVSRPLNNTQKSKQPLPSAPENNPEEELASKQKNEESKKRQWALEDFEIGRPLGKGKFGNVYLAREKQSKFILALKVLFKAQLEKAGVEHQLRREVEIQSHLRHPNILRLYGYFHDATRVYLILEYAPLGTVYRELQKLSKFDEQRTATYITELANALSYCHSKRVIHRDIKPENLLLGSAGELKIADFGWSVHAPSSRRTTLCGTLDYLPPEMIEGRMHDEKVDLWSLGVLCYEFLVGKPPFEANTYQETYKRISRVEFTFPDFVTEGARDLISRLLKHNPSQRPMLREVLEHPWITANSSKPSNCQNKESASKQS

[2] = molecular target: Aurora kinase B (Homo sapiens) (UniProt Q96GD4); experiment: Inhibition of AURB (unknown origin) at 50 nM by Z'LYTE screening method relative to control
Chain of Aurora kinase B (Homo sapiens) (Q96GD4 whole entry): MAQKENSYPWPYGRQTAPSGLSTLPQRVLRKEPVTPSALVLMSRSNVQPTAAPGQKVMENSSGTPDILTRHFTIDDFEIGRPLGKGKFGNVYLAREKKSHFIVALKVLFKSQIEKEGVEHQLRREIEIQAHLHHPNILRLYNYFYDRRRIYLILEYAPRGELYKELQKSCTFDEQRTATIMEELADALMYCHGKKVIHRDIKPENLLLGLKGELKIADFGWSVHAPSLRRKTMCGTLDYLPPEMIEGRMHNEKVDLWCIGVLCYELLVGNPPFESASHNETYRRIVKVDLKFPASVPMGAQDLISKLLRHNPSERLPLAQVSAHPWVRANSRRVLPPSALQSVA

[3] = molecular target: Protein kinase C alpha type (Homo sapiens) (UniProt P17252); experiment: Inhibition of PKCalpha (unknown origin) at 50 nM by Z'LYTE screening method relative to control
[4] = molecular target: Protein kinase C beta type (Homo sapiens) (UniProt P05771); experiment: Inhibition of PKCbeta1 (unknown origin) at 50 nM by Z'LYTE screening method relative to control
Chain of Protein kinase C beta type (Homo sapiens) (P05771 2-671 limits assumed): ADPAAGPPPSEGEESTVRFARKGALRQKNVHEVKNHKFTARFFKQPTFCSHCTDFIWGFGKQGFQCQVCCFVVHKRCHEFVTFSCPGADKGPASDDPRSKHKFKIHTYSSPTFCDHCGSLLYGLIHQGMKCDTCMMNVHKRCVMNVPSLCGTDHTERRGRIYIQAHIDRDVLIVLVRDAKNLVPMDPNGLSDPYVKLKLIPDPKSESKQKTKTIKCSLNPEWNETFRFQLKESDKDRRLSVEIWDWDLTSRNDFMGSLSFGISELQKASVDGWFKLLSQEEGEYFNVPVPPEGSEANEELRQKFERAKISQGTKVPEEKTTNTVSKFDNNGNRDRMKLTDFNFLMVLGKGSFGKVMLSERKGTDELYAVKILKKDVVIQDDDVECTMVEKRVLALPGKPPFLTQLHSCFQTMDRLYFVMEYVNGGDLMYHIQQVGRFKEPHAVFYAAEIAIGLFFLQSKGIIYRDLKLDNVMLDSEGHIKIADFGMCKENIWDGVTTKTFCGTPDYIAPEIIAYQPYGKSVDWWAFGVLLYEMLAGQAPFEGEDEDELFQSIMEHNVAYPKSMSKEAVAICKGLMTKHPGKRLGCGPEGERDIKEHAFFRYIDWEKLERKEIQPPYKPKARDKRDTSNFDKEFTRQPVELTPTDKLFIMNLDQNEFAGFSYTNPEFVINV

[5] = molecular target: Protein kinase C beta type (Homo sapiens) (UniProt P05771); experiment: Inhibition of PKCbeta2 (unknown origin) at 50 nM by Z'LYTE screening method relative to control
[6] = molecular target: T2, Protein kinase C theta type (Homo sapiens, UniProt Q04759); experiment: Inhibition of PKCtheta (unknown origin) at 50 nM by Z'LYTE screening method relative to control
Target sequence in this assay (Q04759 whole entry, looked up): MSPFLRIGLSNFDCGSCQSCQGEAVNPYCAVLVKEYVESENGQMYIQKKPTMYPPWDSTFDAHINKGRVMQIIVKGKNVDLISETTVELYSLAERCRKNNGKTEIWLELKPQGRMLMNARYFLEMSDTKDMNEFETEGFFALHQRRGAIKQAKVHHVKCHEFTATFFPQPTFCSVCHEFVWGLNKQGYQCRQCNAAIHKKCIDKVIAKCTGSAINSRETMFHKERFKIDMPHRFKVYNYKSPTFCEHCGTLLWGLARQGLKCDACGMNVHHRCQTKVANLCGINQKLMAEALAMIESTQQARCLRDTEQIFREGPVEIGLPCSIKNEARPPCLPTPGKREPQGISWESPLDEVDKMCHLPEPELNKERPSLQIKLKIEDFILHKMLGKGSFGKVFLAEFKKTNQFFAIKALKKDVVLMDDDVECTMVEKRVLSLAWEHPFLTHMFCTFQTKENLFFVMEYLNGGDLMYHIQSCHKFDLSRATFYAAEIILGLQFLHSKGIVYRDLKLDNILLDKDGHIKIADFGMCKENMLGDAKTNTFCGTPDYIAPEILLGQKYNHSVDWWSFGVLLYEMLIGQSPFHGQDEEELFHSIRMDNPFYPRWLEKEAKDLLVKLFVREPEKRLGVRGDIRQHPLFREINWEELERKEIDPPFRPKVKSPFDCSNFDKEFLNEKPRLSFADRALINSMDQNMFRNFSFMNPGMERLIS

MDA-MB-231 = experiment: Cytotoxicity against human MDA-MB-231/M cells assessed as reduction in cell viability incubated for 96 hrs by MTT assay; assay type: functional, cell-based; settings: MDA-MB-231, 96 h
4T1 = experiment: Cytotoxicity against mouse 4T1 cells assessed as reduction in cell viability incubated for 96 hrs by MTT assay; assay type: functional, cell-based; settings: 4T1, 96 h
[7] = molecular target: Protein kinase C alpha type (Homo sapiens) (UniProt P17252); experiment: Inhibition of PKCalpha (unknown origin) by Z'LYTE screening method relative to control; settings: concentration not given here
[8] = molecular target: Protein kinase C beta type (Homo sapiens) (UniProt P05771); experiment: Inhibition of PKCbeta1 (unknown origin) by Z'LYTE screening method relative to control; settings: concentration not given here
[9] = molecular target: Protein kinase C beta type (Homo sapiens) (UniProt P05771); experiment: Inhibition of PKCbeta2 (unknown origin) by Z'LYTE screening method relative to control; settings: concentration not given here
[10] = molecular target: Proto-oncogene tyrosine-protein kinase receptor Ret (Homo sapiens) (UniProt P07949); experiment: Inhibition of RET (unknown origin) by Z'LYTE screening method relative to control; settings: concentration not given here
Chain of Proto-oncogene tyrosine-protein kinase receptor Ret (Homo sapiens) (P07949 whole entry): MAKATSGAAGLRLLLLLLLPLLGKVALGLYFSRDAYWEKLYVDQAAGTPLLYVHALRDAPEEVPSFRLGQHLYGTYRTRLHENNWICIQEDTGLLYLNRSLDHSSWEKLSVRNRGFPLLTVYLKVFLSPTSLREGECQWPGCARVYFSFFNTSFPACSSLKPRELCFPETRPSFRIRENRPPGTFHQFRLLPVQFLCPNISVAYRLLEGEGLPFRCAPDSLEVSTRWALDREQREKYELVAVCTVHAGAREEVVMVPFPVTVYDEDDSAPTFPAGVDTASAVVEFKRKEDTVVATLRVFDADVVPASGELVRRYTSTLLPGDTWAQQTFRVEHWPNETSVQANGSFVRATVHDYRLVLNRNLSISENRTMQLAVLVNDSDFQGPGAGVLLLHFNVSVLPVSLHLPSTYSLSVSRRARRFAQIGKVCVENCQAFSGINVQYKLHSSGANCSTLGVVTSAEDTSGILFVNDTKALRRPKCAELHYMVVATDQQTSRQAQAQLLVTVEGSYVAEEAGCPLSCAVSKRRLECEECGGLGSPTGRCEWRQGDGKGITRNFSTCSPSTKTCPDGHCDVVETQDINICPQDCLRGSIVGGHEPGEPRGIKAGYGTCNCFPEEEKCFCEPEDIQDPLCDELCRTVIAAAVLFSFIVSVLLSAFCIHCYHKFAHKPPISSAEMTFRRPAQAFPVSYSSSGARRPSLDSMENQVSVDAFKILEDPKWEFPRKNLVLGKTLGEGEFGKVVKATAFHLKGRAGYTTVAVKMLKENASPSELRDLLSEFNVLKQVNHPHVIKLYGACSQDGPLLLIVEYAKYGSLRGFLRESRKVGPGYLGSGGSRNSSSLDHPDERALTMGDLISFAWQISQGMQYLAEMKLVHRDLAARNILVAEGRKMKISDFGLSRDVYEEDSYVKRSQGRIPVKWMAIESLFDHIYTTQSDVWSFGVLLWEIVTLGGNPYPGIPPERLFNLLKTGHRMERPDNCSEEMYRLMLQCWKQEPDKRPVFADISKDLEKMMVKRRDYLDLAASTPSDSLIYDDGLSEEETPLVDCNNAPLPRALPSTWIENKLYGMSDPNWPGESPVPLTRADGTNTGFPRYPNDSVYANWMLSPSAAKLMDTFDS

[11] = molecular target: Protein kinase C eta type (Homo sapiens, UniProt P24723); experiment: Inhibition of PKCeta (unknown origin) by IMAP kinase assay
Chain of Protein kinase C eta type (P24723 whole entry): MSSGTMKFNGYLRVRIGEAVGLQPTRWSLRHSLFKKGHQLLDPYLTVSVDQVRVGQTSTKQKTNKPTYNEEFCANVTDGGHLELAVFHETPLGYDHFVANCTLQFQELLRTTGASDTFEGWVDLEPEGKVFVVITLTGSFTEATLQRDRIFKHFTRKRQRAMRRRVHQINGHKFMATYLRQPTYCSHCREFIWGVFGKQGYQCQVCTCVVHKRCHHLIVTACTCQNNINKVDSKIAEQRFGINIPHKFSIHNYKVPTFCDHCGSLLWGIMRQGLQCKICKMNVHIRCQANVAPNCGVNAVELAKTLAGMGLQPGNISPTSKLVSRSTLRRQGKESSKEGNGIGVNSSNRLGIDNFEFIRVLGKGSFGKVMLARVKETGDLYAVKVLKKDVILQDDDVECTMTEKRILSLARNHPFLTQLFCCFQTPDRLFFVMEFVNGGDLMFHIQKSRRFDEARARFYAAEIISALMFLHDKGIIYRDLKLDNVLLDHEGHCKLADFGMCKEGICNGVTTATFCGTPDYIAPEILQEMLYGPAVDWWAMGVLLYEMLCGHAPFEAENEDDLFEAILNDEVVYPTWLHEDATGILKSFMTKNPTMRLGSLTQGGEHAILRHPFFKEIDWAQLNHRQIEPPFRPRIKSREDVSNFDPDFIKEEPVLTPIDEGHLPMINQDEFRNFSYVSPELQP

[12] = molecular target: Serine/threonine-protein kinase D3 (Homo sapiens, UniProt O94806); experiment: Inhibition of PKCnu (unknown origin) by IMAP kinase assay
[13] = molecular target: Protein kinase C epsilon type (Homo sapiens, UniProt Q02156); experiment: Inhibition of PKCepsilon (unknown origin) by IMAP kinase assay
[14] = molecular target: T2, Protein kinase C theta type; experiment: Inhibition of full length human PKCtheta using 5-FAM-RFARKGSLRQKNV-OH peptide substrate incubated for 30 mins by IMAP kinase assay
Target sequence in this assay (Q04759 whole entry): as the sequence (Q04759 whole entry, looked up) above

[15] = molecular target: T3, Protein kinase C epsilon type (Homo sapiens) (UniProt Q02156); experiment: Inhibition of PKCepsilon (unknown origin) by Z'LYTE screening method relative to control; settings: concentration not given here
T3 sequence (whole entry): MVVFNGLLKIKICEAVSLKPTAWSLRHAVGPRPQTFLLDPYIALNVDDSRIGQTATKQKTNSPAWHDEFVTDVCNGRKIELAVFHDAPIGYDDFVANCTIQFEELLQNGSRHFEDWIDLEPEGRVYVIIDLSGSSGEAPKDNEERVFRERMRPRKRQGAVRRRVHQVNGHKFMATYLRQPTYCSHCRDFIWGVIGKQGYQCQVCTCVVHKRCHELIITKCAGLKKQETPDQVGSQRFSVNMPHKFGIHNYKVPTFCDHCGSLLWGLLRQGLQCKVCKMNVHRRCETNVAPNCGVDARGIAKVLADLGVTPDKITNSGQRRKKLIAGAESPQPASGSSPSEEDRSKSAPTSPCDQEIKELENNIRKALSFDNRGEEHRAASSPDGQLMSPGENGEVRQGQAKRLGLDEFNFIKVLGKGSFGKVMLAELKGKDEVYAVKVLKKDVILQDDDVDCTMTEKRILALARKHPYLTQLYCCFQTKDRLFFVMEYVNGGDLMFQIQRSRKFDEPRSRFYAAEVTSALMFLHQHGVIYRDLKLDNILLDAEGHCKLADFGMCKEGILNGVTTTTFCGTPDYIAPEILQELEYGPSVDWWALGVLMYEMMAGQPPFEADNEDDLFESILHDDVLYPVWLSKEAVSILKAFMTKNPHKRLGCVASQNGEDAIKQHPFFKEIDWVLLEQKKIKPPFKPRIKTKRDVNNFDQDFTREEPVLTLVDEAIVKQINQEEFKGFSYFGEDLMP

[16] = molecular target: T4, Serine/threonine-protein kinase D1 (Homo sapiens) (UniProt Q15139); experiment: Inhibition of PKCmu (unknown origin) by Z'LYTE screening method relative to control; settings: concentration not given here
T4 sequence (whole entry): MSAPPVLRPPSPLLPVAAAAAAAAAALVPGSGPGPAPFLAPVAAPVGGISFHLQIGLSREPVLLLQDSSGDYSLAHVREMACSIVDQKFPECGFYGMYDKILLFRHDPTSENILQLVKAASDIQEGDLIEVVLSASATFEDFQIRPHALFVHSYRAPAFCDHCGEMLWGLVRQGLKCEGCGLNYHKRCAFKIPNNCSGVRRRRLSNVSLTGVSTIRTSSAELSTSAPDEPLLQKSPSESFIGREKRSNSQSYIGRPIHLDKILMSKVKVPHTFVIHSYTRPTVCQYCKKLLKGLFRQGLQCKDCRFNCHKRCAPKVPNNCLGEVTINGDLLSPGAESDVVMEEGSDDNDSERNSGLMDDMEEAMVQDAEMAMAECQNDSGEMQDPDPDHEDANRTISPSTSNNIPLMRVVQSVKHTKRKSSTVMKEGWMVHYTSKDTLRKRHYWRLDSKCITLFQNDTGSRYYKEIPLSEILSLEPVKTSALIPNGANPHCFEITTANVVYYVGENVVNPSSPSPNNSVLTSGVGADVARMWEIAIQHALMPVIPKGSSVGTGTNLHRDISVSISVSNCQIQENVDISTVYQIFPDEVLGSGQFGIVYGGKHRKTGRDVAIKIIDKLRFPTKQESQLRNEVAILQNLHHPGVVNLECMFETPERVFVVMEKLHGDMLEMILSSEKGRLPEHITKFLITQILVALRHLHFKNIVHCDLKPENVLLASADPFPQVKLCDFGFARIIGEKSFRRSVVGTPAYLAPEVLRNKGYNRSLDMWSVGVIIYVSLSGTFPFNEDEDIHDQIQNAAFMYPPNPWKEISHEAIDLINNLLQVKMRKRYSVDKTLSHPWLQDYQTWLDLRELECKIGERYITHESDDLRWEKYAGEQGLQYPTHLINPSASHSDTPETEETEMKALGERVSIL

[17] = molecular target: T5, Serine/threonine-protein kinase D3 (Homo sapiens) (UniProt O94806); experiment: Inhibition of PKCnu (unknown origin) by Z'LYTE screening method relative to control; settings: concentration not given here
T5 sequence (whole entry): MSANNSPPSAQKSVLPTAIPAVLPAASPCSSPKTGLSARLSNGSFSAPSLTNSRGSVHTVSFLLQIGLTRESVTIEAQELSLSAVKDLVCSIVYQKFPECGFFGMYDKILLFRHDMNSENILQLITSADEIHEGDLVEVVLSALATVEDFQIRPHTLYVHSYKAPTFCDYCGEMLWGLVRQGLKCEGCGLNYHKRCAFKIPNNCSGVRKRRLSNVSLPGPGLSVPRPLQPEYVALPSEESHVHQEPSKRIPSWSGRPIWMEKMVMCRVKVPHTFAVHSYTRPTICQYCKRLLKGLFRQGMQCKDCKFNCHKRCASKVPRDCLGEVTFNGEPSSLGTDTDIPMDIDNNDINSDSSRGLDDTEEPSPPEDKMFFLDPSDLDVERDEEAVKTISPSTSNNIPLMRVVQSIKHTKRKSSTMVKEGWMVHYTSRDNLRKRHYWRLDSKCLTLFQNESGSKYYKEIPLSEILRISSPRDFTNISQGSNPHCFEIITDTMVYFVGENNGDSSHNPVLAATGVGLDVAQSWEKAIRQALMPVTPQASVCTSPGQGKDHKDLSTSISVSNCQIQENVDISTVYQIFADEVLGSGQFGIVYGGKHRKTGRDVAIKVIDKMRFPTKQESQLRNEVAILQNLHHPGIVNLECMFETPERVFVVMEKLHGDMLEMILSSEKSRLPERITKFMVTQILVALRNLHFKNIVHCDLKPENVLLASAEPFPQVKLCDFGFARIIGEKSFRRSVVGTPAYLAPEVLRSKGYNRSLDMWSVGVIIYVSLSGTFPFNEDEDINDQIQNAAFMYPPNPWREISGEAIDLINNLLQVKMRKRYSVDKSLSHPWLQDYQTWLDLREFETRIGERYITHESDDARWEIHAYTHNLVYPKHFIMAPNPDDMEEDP

[18] = molecular target: T6, Protein kinase C zeta type (Homo sapiens) (UniProt Q05513); experiment: Inhibition of PKCzeta (unknown origin) by Z'LYTE screening method relative to control; settings: concentration not given here
T6 sequence (whole entry): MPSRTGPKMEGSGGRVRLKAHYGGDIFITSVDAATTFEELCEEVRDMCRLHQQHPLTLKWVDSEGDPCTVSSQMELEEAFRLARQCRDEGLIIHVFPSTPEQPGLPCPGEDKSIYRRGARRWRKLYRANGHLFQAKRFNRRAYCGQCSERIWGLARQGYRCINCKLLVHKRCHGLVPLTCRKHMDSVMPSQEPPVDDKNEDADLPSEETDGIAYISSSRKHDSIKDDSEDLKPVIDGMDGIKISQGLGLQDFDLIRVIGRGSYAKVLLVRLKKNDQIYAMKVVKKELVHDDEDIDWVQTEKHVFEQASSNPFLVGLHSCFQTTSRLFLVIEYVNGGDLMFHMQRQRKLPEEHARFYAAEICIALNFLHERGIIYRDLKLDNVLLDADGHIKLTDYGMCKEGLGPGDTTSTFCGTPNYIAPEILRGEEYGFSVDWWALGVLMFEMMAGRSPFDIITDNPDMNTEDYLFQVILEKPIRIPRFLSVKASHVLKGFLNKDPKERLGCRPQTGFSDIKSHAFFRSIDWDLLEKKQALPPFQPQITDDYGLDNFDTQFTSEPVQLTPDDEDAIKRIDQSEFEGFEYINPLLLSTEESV

Aurora kinase C = Aurora kinase C (Homo sapiens, UniProt Q9UQB9); experiment: Inhibition of AURC (unknown origin)
Chain of Aurora kinase C (Q9UQB9 whole entry): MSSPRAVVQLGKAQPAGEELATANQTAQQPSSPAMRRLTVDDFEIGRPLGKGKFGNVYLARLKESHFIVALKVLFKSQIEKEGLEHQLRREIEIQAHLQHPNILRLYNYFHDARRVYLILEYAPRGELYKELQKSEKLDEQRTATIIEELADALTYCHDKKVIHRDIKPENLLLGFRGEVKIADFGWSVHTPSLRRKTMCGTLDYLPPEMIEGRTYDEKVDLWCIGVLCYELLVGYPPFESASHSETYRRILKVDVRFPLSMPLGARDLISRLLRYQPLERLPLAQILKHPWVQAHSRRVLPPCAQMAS

| inhibition [1] | inhibition [2] | inhibition [3] | inhibition [4] | inhibition [5] | inhibition [6] | inhibition [7] | inhibition [8] | inhibition [9] | SMILES | IC50 (MDA-MB-231) | IC50 (4T1) | further results |
| --- | --- | --- | --- | --- | --- | --- | --- | --- | --- | --- | --- | --- |
| 58% | 7% | 65% | 40% | 13% | 60% | – | – | – | O=c1c2ccccc2sn1-c1nc(NC2CCCC2)c2nc[nH]c2n1 | 29.2 µM | 25.6 µM | – |
| – | – | – | – | – | – | 8% | 6% | 2% | Cc1cc(Nc2cc(N3CCN(C)CC3)nc(Sc3ccc(NC(=O)C4CC4)cc3)n2)n[nH]1 | – | – | inhibition [10]: 62% |
| – | – | – | – | – | – | – | – | – | O=C(N[C@@H]1CNCCC[C@H]1OC(=O)c1cc(O)c(C(=O)c2c(O)cccc2C(=O)O)c(O)c1)c1ccc(O)cc1 [BALANOL] | – | – | IC50 [11]: 4 nM |
| – | – | – | – | – | – | 100% | 98% | 98% | CN1CCN(c2nc(C3=C(c4c[nH]c5ccccc45)C(=O)NC3=O)c3ccccc3n2)CC1 [SOTRASTAURIN] | – | – | IC50 [12]: 2.1 nM; IC50 [13]: 3.2 nM; IC50 [14]: 0.22 nM; inhibition [15]: 76%; inhibition [16]: 92%; inhibition [17]: 76%; inhibition [18]: 80% |
| 69% | 7% | 92% | 85% | 81% | 97% | – | – | – | O=c1c2ccccc2sn1-c1nc(NC2CCSC2)c2nc[nH]c2n1 (configuration not stated) | 10.3 µM | 12.2 µM | – |
| – | – | – | – | – | – | – | – | – | O=C(Nc1cccc(Cl)c1)Nc1ncc(CCNc2ncnc3ccsc23)s1 [SNS-314] | – | – | IC50 (Aurora kinase C): 3 nM |
